Legend:
Assay type in all cases: biochemical
h15-LOX-2 = molecular target: T1, h15-LOX-2 (Homo sapiens, UniProt O15296); experiment: IC50 determination against h15-LOX-2; settings: 10 μM AA, 25 mM HEPES pH 7.5, 0.01% Triton X-100, 22 °C
T1 construct: His tag; made in house
T1 sequence (O15296 1-676): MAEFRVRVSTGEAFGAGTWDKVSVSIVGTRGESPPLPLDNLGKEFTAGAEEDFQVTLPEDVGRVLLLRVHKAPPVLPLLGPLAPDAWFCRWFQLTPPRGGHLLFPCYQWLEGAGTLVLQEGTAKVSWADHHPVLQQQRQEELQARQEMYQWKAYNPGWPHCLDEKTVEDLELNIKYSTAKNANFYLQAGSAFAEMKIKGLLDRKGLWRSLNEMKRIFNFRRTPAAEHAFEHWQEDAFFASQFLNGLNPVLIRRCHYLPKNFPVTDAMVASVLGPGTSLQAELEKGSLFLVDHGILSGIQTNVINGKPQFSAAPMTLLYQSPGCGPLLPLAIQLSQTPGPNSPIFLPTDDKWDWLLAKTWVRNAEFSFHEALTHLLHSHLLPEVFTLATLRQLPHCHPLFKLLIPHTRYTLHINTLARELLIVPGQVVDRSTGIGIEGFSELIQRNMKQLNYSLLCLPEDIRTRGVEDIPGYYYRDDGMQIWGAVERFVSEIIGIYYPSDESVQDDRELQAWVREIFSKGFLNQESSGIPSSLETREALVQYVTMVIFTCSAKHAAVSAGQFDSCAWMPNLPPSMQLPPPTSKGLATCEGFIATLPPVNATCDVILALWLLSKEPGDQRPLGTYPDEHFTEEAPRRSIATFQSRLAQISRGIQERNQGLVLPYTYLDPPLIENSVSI
Method: (§1) Overexpression and purification of his-tagged wild-type h12-LOX (Uniprot entry P18054), h15-LOX-1 (Uniprot entry P16050), and h15-LOX-2 (Uniprot entry O15296) were performed using nickel-affinity chromatography. The purity of h12-LOX, h15-LOX-1, and h15-LOX-2 was assessed using SDS gel as greater than 85%, and metal content was assessed with a Finnigan inductively coupled plasma mass spectrometer (ICP-MS, Thermo Fischer Scientific, San Jose, USA) via comparison with iron standard solution. Cobalt-EDTA was used as an internal standard. WT h5-LOX (UniProt entry P09917) was expressed in Rosetta 2 cells (Novagen) transformed with the pET14b-Stable-5-LOX plasmid (a gift from Marcia Newcomer of Louisiana State University) and grown in Terrific Broth containing 34 μg/mL chloramphenicol and 100 μg/mL ampicillin at 37 °C for 3.5 h, then placed at 20 °C for an additional 26 h. Cells were pelleted and resuspended in 50 mM Tris (pH 8.0), 500 mM NaCl, 20 mM imidazole with 1 μM pepstatin, 100 μM PMSF, and DNaseI (Sigma, Kanagawa, Japan). The cells were lysed in a French pressure cell and centrifuged at 40,000× g for 20 min at 4 °C. Saturated ammonium sulfate was added to achieve a final solution of 10% and inverted several times. The lysate was centrifuged at 40,000× g for 10 min at 4 °C. The pellet was discarded, and the supernatant was increased to a final concentration of 50% ammonium sulfate. The supernatant was rotated for 10 min at 4 °C then centrifuged at 40,000× g for 10 min at 4 °C. The pellet was split into 150 mg aliquots. The WT h5-LOX used for the kinetics in this work was not purified due to a dramatic loss in activity and was therefore prepared as an ammonium-sulfate precipitate.
(§2) IC50 values for each acyl-CoA were measured against h5-LOX, h12-LOX, h15-LOX-1, and h15-LOX-2. The reactions were carried out in 25 mM HEPES buffer (pH 8.00), 0.01% Triton X-100, and 10 μM AA for h12-LOX; 25 mM HEPES buffer (pH 7.5), 0.01% Triton X-100, and 10 μM AA for h15-LOX-1 and h15-LOX-2; and 50 mM HEPES buffer (pH 7.5), 100 µM EDTA, 50 mM NaCl, 200 µM ATP, and 10 μM AA for h5-LOX. IC50 reactions were implemented with h15-LOX-1 (0.125 μM), h12-LOX (0.300 μM), h15-LOX-2 (0.5 μM), and h5-LOX (∼600 nM ammonium sulfate salt) at 22 °C in a 1 cm^2 quartz cuvette containing 2 mL of the according buffer and 10 μM AA for no longer than 2 min to avoid any cleavage of the acyl-coenzyme A. Inhibitor concentrations ranging from 50 μM to 0.01 μM were used. All reactions were conducted using a Cary-UV Vis spectrophotometer (Agilent, Santa Clara, CA, USA). The fastest rates over 15 s intervals were recorded. IC50 values were obtained by determining the percent of inhibition of the enzymatic rate at ten inhibitor concentrations and plotting the rate against the inhibitor concentration, followed by a hyperbolic saturation curve fit. The saturation curve fits were performed in duplicate or triplicate, depending on the quality of the data. […] Through HPLC monitoring, we were able to determine a lack of degradation of the fatty acyl-CoAs over the first hour.

h15-LOX-1 [1] = molecular target: T2, h15-LOX-1 (Homo sapiens, UniProt P16050); experiment: IC50 determination against h15-LOX-1; settings: 10 μM AA, 25 mM HEPES pH 7.5, 0.01% Triton X-100, 22 °C
T2 construct: His tag; made in house
T2 sequence (P16050 1-662): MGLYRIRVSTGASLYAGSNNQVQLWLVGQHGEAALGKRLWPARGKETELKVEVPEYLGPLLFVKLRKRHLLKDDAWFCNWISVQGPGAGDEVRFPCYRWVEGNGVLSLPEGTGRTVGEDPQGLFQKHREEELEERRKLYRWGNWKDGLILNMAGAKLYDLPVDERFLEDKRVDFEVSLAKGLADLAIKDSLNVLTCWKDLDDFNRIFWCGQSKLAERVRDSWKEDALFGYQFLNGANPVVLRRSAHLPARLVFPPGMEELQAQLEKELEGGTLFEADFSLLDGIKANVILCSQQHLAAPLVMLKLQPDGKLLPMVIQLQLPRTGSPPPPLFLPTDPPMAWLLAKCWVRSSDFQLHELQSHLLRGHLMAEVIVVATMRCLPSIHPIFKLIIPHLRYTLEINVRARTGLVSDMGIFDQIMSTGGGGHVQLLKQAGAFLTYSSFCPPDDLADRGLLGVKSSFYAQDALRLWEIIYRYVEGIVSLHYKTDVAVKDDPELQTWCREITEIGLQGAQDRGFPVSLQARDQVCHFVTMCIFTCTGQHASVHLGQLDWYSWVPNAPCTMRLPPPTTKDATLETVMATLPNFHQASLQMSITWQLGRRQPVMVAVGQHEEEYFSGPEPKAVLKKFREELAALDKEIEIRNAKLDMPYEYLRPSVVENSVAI
Method: as §1, §2

h12-LOX = molecular target: T3, h12-LOX (Homo sapiens, UniProt P18054); experiment: IC50 determination against h12-LOX; settings: methyl esters; 10 μM AA, pH 8.00; read-out: IC50 h12-LOX (methyl ester unsaturated fatty acids)
T3 construct: His tag; made in house
T3 sequence (P18054 1-663): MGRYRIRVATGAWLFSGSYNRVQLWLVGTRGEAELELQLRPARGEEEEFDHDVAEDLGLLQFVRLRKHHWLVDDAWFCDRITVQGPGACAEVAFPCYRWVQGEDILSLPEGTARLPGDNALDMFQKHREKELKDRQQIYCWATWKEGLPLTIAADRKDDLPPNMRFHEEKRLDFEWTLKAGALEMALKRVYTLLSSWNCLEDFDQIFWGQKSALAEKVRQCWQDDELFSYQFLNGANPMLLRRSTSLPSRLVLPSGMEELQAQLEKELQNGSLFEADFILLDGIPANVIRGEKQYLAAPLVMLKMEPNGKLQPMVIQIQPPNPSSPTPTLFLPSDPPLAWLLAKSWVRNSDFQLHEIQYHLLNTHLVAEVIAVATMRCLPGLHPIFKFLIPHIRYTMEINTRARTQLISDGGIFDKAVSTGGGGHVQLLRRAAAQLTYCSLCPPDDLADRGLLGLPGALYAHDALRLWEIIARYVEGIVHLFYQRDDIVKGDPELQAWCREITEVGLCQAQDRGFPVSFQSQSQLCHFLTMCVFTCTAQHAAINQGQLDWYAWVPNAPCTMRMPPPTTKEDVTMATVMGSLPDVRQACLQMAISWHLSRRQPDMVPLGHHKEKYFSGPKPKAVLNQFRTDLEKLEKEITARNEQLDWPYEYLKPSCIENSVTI
Method: as §1
IC50 values for each acyl-CoA were measured against h5-LOX, h12-LOX, h15-LOX-1, and h15-LOX-2. […] The fastest rates over 15 s intervals were recorded. […]

h15-LOX-1 [2] = molecular target: T2, h15-LOX-1; experiment: Substrate activity and kinetic parameters with h15-LOX-1; settings: acyl-CoAs tested at 70 µM; change in absorbance at 234 nm
Method: Considering that some of these acyl-CoAs could potentially be substrates for LOX isozymes, each acyl-CoA was tested at 70 µM against each LOX isozyme to establish the possibility of catalysis.
The same buffer as used to determine IC50 values for h5-LOX was used for product determination. Turnover was monitored by absorbance at 234 nm.

IC50 (h15-LOX-2) [µM] | IC50 (h15-LOX-1 [1]) [µM] | IC50 (h12-LOX) [µM] | Structure (SMILES) | Substrate activity with h15-LOX-1 (h15-LOX-1 [2])
> 200 | > 200 | > 200 | CC/C=C\C/C=C\C/C=C\CCCCCCCCCCCC(=O)OC [methyl 13(Z),16(Z),19(Z)-docosatrienoate, methyl-13(Z),16(Z),19(Z)-docosatrienoate (22:3)] | 
> 200 | > 200 | > 200 | CC/C=C\C/C=C\C/C=C\CC/C=C\CCCCCCCC(=O)OC [methyl docosatetraenoate, methyl-9(Z),13(Z),16(Z),19(Z)-docosatetraenoate (22:4)] | 
 |  |  | CCCCC/C=C\C/C=C\C/C=C\C/C=C\CCCC(=O)OC [methyl ester arachidonic acid] | substrates
> 200 | > 200 | > 200 | CCCCC/C=C\C/C=C\CCCCCCCCCCCC(=O)OC [methyl-13Z,16Z-docosadienoic, methyl-13Z,16Z-docosadienoic (22:2)] | 

— paper PMC10341549, “Inhibitory Investigations of Acyl-CoA Derivatives against Human Lipoxygenase Isozymes” (International Journal of Molecular Sciences, 2023)
